pIC50: −log10 of the molar value. Like-named read-outs stand apart in the source and are kept apart here.
Columns and labels:
[1] = tested on: uptake of [3H]-norepinephrine, hypothalamus; test: Inhibition of norepinephrine uptake in hypothalamus homogenate after dosing live rats; assay type: in vivo, male Sprague-Dawley rats; conditions: for ED50 / inhibition at 10 mg/kg: Rattus norvegicus; for ED50: ip, read-out: ED50 value
Procedure: The test animals were male Sprague-Dawley rats weighing 110-150 g., which were treated in groups of 5 with the test compound at the doses and times specified, and were killed by decapitation. The hypothalamus was removed from each brain, and homogenized in a medium as described in the in vitro test above. Aliquots of the homogenate containing 1 mg. of protein were used; the incubation times, medium and temperature were as described in the test above.
The data were expressed another way by plotting the blood level of the compound against the rate of [^3H]norepinephrine uptake.

[2] = target: strips of fresh guinea pig trachea, acetylcholine as the agonist; test: Anticholinergic activity in guinea pig tracheal strips, acetylcholine as agonist (Schild plot); assay type: cell-based; conditions: for negative logarithm of the dissociation constant: acetylcholine as agonist, guinea pig trachea
Procedure: The test was carried out on 2mm. x 30mm. strips of fresh guinea pig trachea. The strips were suspended in 10 ml. organ baths containing physiological salt solution at 37.5°, and aerated with a mixture of 5% carbon dioxide and 95% oxygen. The tracheal strips were attached to isometric transducers connected to an automatic recorder, and were allowed to equilibrate under a tension of 2 g. for at least 2 hours before addition of drug. Dose-response curves were obtained by adding increasing concentrations of drug to the bath, in approximately 3-fold increments. […] Consecutive dose-response curves on a given tissue were always separated by 1 hour of washing with fresh physiological salt solution to assure maximum washout of drug.
Dissociation constants were determined using acetylcholine as the agonist. In this method, the ratio of concentrations of acetylcholine giving equal responses in the presence and in the absence of the compound of this invention was determined at various concentrations of the compound. […] The method of calculation is clearly discussed by Arunlakshana and Schild, Some Quantitative Uses of Drug Antagonists, Brit. J. Pharmacol. 14 48-58 (1959).

[3] = tested on: uptake of norepinephrine by synaptosomes isolated from the hypothalamus; test: In vitro uptake of [3H]norepinephrine by rat hypothalamus synaptosomes (method of Wong and Bymaster); assay type: biochemical, male Sprague-Dawley rats; conditions: for Uptake: [3H]norepinephrine uptake
Procedure: (§1) Monoamine uptake inhibition was measured by the in vitro method of Wong and Bymaster, cited above. In this method, male Sprague-Dawley rats weighing 110-150 g. were killed by decapitation, and the whole brains were removed and dissected. Crude preparations of synaptosomes were prepared from 10% homogenates of specific areas of the brain in 0.32M sucrose and lOmM glucose by differential centrifugation, according to the method of Gray and Whittaker, J. Anat. 96, 79 (1962).
(§2) Uptake of [^3H]monoamines by synaptosomes was determined as follows. A portion of a synaptosome preparation equivalent to 1 mg. of protein was incubated at 37°. for 5 minutes in 1 or 3 ml. of Krebs bicarbonate medium containing an additional 10mM of glucose, 0.1mM iproniazid, ImM ascorbic acid, 0.17mM ethylenediaminetetraacetic acid and [3H]monoamine at a specified concentration. The incubation mixtures were immediately diluted with 2 ml. of ice-chilled Krebs bicarbonate buffer containing 1mM non-radioactive monoamine. Synaptosomes were harvested by centrifugation, and rinsed with 5 ml. of cold buffer into counting vials containing 10 ml. of scintillation fluid. Radioactivity was measured with a liquid scintillation spectrometer, and the amount of [^3H]- monoamine accumulated by the synaptosomes at 4° represented the background count and was subtracted from the results obtained on all samples.

[4] = tested on: uptake of norepinephrine by synaptosomes of the hypothalamus after 6-hydroxydopamine; test: Protection against 6-hydroxydopamine-induced loss of norepinephrine uptake; assay type: in vivo, male Sprague-Dawley rat; conditions: Rattus norvegicus, ip; for ED50: antagonism of 6-hydroxydopamine, intraperitoneally
Source text: The neurotoxic agent 6-hydroxydopamine has the property of destroying norepinephrinergic terminals of the central and peripheral nervous systems.

[5] = tested on: reduction in body temperature caused by apomorphine; test: Apomorphine hypothermia antagonism test; assay type: in vivo, Mice; conditions: for dose giving 50% antagonism of the hypothermia: compound intraperitoneally 30 minutes before apomorphine, temperature 30 minutes after
mice [6] = conditions: mouse, in vivo
mice [7] = test: Acute toxicity in mice; conditions: injected in mice
[8] = tested on: dopamine uptake, synaptosomes isolated from the corpus striatum; test: In vitro uptake of [3H]dopamine by corpus striatum synaptosomes; assay type: biochemical, male Sprague-Dawley rats
Procedure: as §1
as §2, with “The incubation mixtures were immediately diluted with 2 ml. of ice-chilled Krebs bicarbonate buffer containing 1mM non-radioactive monoamine. Synaptosomes were harvested by centrifugation, and rinsed with 5 ml. of cold buffer into counting vials containing 10 ml. of scintillation fluid.” left out
(§3) The effect of the compound of this invention on the uptake of [^3H]serotonin and [^3H]dopamine was also determined, by the same test method, using synaptosomes isolated from the corpus striatum for the determination of dopamine uptake and synaptosomes of cerebral cortex for serotonin uptake.

[9] = tested on: serotonin uptake, synaptosomes of cerebral cortex; test: In vitro uptake of [3H]serotonin by cerebral cortex synaptosomes; assay type: biochemical, male Sprague-Dawley rats
Procedure: as §1
as §2, with “The incubation mixtures were immediately diluted with 2 ml. of ice-chilled Krebs bicarbonate buffer containing 1mM non-radioactive monoamine. Synaptosomes were harvested by centrifugation, and rinsed with 5 ml. of cold buffer into counting vials containing 10 ml. of scintillation fluid.” left out
as §3

[10] = tested on: canine cardiac conducting tissue, sometimes called Purkinje fibers; conditions: dog
Source text: Another test applied to the compound was one designed to detect electrophysiological effects in canine cardiac conducting tissue, sometimes called Purkinje fibers.

[11] = Oral absorption (statement only); conditions: in vivo
[12] = 4 h, four hours after administration, read-out: inhibition of norepinephrine uptake
[13] = inhibition of norepinephrine uptake, intraperitoneally, 1 hour before sacrifice
[14] = duration experiment up to 4 hours, read-out: maximum inhibition of norepinephrine uptake

## CNCCC(Oc1ccccc1C)c1ccccc1.Cl (racemic) [racemate, N-methyl-3-(2-methylphenoxy)-3-phenylpropylamine, hydrochloride, reference compound]
[1]
  ED50: 3.4 mg/kg
[2]
  negative logarithm of the dissociation constant: 5.72

## CNCC[C@H](Oc1ccccc1C)c1ccccc1 [(+)-enantiomer, reference compound]
[3]; norepinephrine uptake, hypothalamus synaptosomes, read-out: IC50 value, concentration which inhibited half of the uptake activity
  pIC50: 7.40
[1]; [12]
  inhibition at 10 mg/kg: 35%
[1]; [13]
  ED50: 6.3 mg/kg
[1]; [14]
  inhibition at 10 mg/kg: 70%
[1]; second hour after administration, read-out: inhibition of norepinephrine uptake
  inhibition at 10 mg/kg: 50%
[4]
  ED50: ~22 mg/kg
[2]
  negative logarithm of the dissociation constant: 6.04
[5]
  dose giving 50% antagonism of the hypothermia: 2.26 mg/kg
[5]; compound orally at 3 mg./kg., apomorphine intraperitoneally
  antagonism: 50%
Mice [6]
  time after administration at which mice were still stimulated: ≥ 5 h
Mice [7]
  doses at which no deaths occurred: below 90 mg./kg.

## CNCCC(Oc1ccccc1C)c1ccccc1.Cl (single isomer, unassigned; (-)) [compound of this invention, (-)-N-methyl-3-(2-methylphenoxy)-3-phenylpropylamine, hydrochloride]
[3]; concentration 1 x 10^-9M, control without drug 3.9 x 10^-12 moles/mg. protein
  Uptake: 3.1 x 10^-12moles/mg. protein
[3]; concentration 2 x 10^-9M, control 3.9
  Uptake: 2.2 x 10^-12moles/mg. protein
[3]; concentration 3 x 10^-9M, control 3.9
  Uptake: 3.1 x 10^-12moles/mg. protein
[3]; concentration 10 x 10^-9M, control 3.9
  Uptake: 1.4 x 10^-12moles/mg. protein
[3]; concentration 30 x 10^-9M, control 3.9
  Uptake: 1.0 x 10^-12moles/mg. protein
[3]; concentration 50 x 10^-9M, control 3.9
  Uptake: 0.9 x 10^-12moles/mg. protein
[3]; concentration 100 x 10^-9M, control 3.9
  Uptake: 0.8 x 10^-12moles/mg. protein
[3]; compared with the corresponding (+)-enantiomer
  potency in inhibiting the uptake of norepinephrine relative to the (+)-enantiomer: about 10 times
[8]
  pIC50: 5.40
[9]
  pIC50: 6.00
[1]; 1 mg./kg. intraperitoneally, 1 hour before sacrifice
  uptake of [3H]-norepinephrine reduced from the control value: 35%
[1]; 3 mg./kg. intraperitoneally, 1 hour before sacrifice
  uptake of [3H]-norepinephrine reduced from the control value: 58%
[1]; 10 mg./kg. intraperitoneally, 1 hour before sacrifice
  uptake of [3H]-norepinephrine reduced from the control value: 68%
[1]; [12]
  inhibition at 10 mg/kg: ~65%
[1]; [13]
  ED50: 2.1 mg/kg
[1]; [14]
  inhibition at 10 mg/kg: > 80%
[1]; blood level plotted against rate of [3H]norepinephrine uptake
  ED50 concentration in blood plasma: about 14 x 10^-9 g./ml.
[4]; 1 mg./kg. intraperitoneally before 6-hydroxydopamine, read-out: reduced the inhibition of uptake (by 6-hydroxydopamine)
  inhibition at 1 mg/kg: 15%
[4]; 3 mg./kg. intraperitoneally before 6-hydroxydopamine, read-out: reduced the inhibition of uptake (by 6-hydroxydopamine)
  inhibition at 3 mg/kg: 43%
[4]; 6 mg./kg. intraperitoneally before 6-hydroxydopamine, read-out: reduced the inhibition of uptake (by 6-hydroxydopamine)
  inhibition at 6 mg/kg: 70%
[4]
  ED50: 4 mg/kg
[2]; fraction of the activity of the (+)-enantiomer
  anticholinergic activity relative to the (+)-enantiomer: 1/6
[2]; fraction of the activity of the racemate
  anticholinergic activity relative to the racemate: 1/3
[5]
  dose giving 50% antagonism of the hypothermia: 0.16 mg/kg
[5]; compound orally at 1 mg./kg., apomorphine intraperitoneally
  highest antagonism: 35%
[10]
  concentration that suppressed the rate of rise and duration of the action potential: 8 µM
[11]
  oral absorption: orally absorbed
Mice [7]
  doses at which no deaths occurred: below 90 mg./kg.
